Results reported in patent US7045305B1, “Methods and reagents for targeting organic compounds to selected cellular locations” (The Regents of the University of California, priority 1998, dated 2006).

Legend:
vacuolar H+ pump = assay: Golgi lumenal pH time course with Golgi-targeted phOx-fluorescein; format: cell-based; conditions: 100 nM, Golgi pH initially ~6.3, individual cells
Protocol: Cells were labeled at two days after transfection, with phOx-fluorophore conjugates by incubation with low concentrations (<100 nM) of the conjugates. […] Images were recorded at room temperature on a K2 BIO microscope (Technical Instruments) equipped with a 60× PlanApo objective (Nikon, N. A. 1.4), coaxial-confocal attachment, and cooled CCD camera (Photometrics). Dual-excitation ratio images of fluorescein were acquired using 440 and 490 nm excitation filters and a 520 nm long pass emission filter (Chroma). Continuous recordings of the fluorescence time course were obtained on a Nikon Diaphot epifluorescence microscope equipped with a 100× PlanApo objective (Nikon, N. A. 1.4), a photomultiplier using a 530 nm bandpass emission filter and an optical filter changer (Model 10-C, Sutter Instrument Co.) containing 440 and 490 nm excitation filters. Cuvette fluorescence measurements were conducted on an SLM 8000c fluorometer (SLM Aminco). Spectra were recorded with 4 nm slit widths; time courses were acquired with 495 nm excitation and a […] longpass emission filter.
Organelle-specific sFv targeting was applied to measure Golgi pH using phOx-fluorescein as the probe. […] The dependence of the fluorescence ratio on pH was measured for Golgi and plasma membrane-expressed sFv (FIG. 4A). […]

[1] = tested on: CHO cells expressing targeted sFv; assay: Site-specific fluorescent labeling of living CHO cells expressing targeted sFv; format: cell-based; conditions: addition of 1 μM
Protocol: CHO cells (ATCC CRL 9618) were transfected with plasmids encoding targeted sFv using lipofectamine (Gibco) as is known in the art.
Cells were labeled at two days after transfection, with phOx-fluorophore conjugates by incubation with low concentrations (<100 nM) of the conjugates. […] Images were recorded at room temperature on a K2 BIO microscope (Technical Instruments) equipped with a 60× PlanApo objective (Nikon, N. A. 1.4), coaxial-confocal attachment, and cooled CCD camera (Photometrics). Dual-excitation ratio images of fluorescein were acquired using 440 and 490 nm excitation filters and a 520 nm long pass emission filter (Chroma). Continuous recordings of the fluorescence time course were obtained on a Nikon Diaphot epifluorescence microscope equipped with a 100× PlanApo objective (Nikon, N. A. 1.4), a photomultiplier using a 530 nm bandpass emission filter and an optical filter changer (Model 10-C, Sutter Instrument Co.) containing 440 and 490 nm excitation filters. Cuvette fluorescence measurements were conducted on an SLM 8000c fluorometer (SLM Aminco). Spectra were recorded with 4 nm slit widths; time courses were acquired with 495 nm excitation and a 510 mm longpass emission filter.
The various sFv targeting constructs and phOx conjugates were studied in CHO cells. […] For quantitative measurement of organelle pH, the free dye was washed out of the bathing solutions.

Row | SMILES | change of Golgi pH after addition (vacuolar H+ pump) | effect on phOx-Bodipy staining of Golgi (competition) [1]
1 | CO/C1=C\C(C)=C\[C@@H](C)[C@@H](O)[C@@H](C)C/C(C)=C/C=C/[C@H](OC)[C@@H]([C@@H](C)[C@@H](O)[C@H](C)[C@@]2(O)C[C@@H](O)[C@H](C)[C@@H](C(C)C)O2)OC1=O [bafilomycin A1] | promptly alkalinized | –
2 | O=C1OC(c2ccccc2)=NC1=CNCCO [phOx-ethanolamine] | – | reversed
